The source of these data is patent US20220267288A1, “CARDIAC THERAPEUTIC” (priority 2019, published 2022).

Structures are written as SMILES.

In this series the test system is dogs. The series is described as follows: Electrophysiological variables (AERP, VERP, repolarization periods) in halothane-anesthetized dogs. In kind it is in vivo, dog. To be noted: 3 mg/kg. Here is the method: Animals were obtained through Kitayama Labes Co., Ltd. (Nagano, Japan). All experiments were approved by the Toho University Animal Care and User Committee (No. 18-51-395) and performed according to the Guideline for the Care and Use of Laboratory Animals of Toho University.
The dogs were initially anesthetized with thiopental sodium (30 mg/kg, i.v.). After intubation with a cuffed endotracheal tube, anesthesia was maintained by inhalation of halothane (1% v/v) vaporized in oxygen with a volume-limited ventilator (SN-480-3; Shinano Manufacturing Co., Ltd., Tokyo, Japan). Tidal volume and respiratory rate were set at 20 mL/kg and 15 breaths/min, respectively. […] To prevent blood clotting, heparin calcium (100 IU/kg) was intravenously administered through a flush line of the catheter sheath placed at the right femoral vein.
The lead II electrocardiogram was obtained from the limb electrodes. The P-wave duration, PR interval, QRS width and QT interval were measured, and QT interval was corrected with Van de Water's formula: QTc=QT-0.087×(RR-1,000) with RR given in ms. The J-Tpeak and Tpeak-Tend were measured as follows. When the end of T-wave was obscure, we used the monophasic action potential (MAP) signal as a guide to estimate the end. The J-Tpeak was corrected for the heart rate with a coefficient as previously described (J-Tpeakc=J-Tpeak/RR^0.58 with RR given in seconds).
A standard 6-French, quad-polar electrodes catheter (Cordis-Webster Inc., Baldwin Park, Calif., USA) was positioned at the non-coronary cusp of the aortic valve through the left femoral artery to obtain the His bundle electrogram. Another 6-French, quad-polar electrode catheter (Cordis-Webster Inc.) was positioned at the sinus nodal areas of the right atrium through the right femoral vein to electrically pace and to record the local electrogram. A bi-directional steerable MAP recording/pacing combination catheter (1675P; EP Technologies, Inc., CA, USA) was positioned at the endocardium of the interventricular septum in the right ventricle through the left femoral vein to obtain MAP signals. The signals were amplified with a DC preamplifier (model 300; EP Technologies, Inc.). The duration of the MAP signals was measured as an interval, along a horizontal line corresponding to the diastolic baseline, from the MAP upstroke to the desired repolarization level. The interval (ms) at 90% repolarization was defined as MAP90.
The heart was electrically driven with a cardiac stimulator (SEC-3102; Nihon Kohden Co., Ltd.) via the pacing electrodes of the combination catheter placed in the right ventricle or the electrodes of the catheter placed at the right atrium. The stimulation pulses were rectangular in shape, 1-2 V (about twice the threshold voltage) and 1 ms duration. The MAP90 of the ventricle was measured during sinus rhythm (MAP90(sinus)) and at a pacing cycle length of 400 ms (MAP90(CL400)) and 300 ms (MAP90(CL300)). The atrial effective refractory period (AERP) and ventricular effective refractory period (VERP) were assessed with the programmed electrical stimulation. The pacing protocol consisted of 5 beats of basal stimuli in a cycle length of 400 ms followed by an extra stimulus of various coupling intervals. Starting in the late diastole, the coupling interval was shortened in 5-ms decrements until the additional stimulus could no longer elicit a response. The AERP and VERP were defined as the shortest coupling interval that could produce a response. The duration of the terminal repolarization period of the ventricle, reflecting phase-3 repolarization time of the action potential, was calculated by the difference between the MAP90(CL400) and VERP (terminal repolarization period=MAP90(CL400)−VERP) at the same site to estimate the extent of electrical vulnerability of the ventricular muscle.

Regarding `CCCCc1oc2ccc(NS(C)(=O)=O)cc2c1C(=O)c1ccc(OCCCN(CCCC)CCCC)cc1.Cl` [Dronedarone], where the note is “20 min after administration”, the ΔAERP result was “+43” and the ΔVERP result is “+23”. Further, for the setting “60 min after administration”, the “ΔJ-Tpeakc (early repolarization period)” value is “+7”, the “ΔTRP (terminal repolarization period)” value is given as “+11” and the “ΔTpeak-Tend (late repolarization period)” value is on record as “+25”.
As for `Cl.[2H]c1c(NS(C)(=O)=O)c([2H])c2c(C(=O)c3ccc(OCCCN(CCCC)CCCC)cc3)c(CCCC)oc2c1[2H]` [Poyendarone, Methanesulfonamide, N-(2-butyl-3-(4-(3-(dibutylamino)propoxy)benzoyl)-1-benzo(4,6,7-d3)-furan-5-yl)hydrochloride], for the setting “30 min after administration”, the ΔAERP entry was “+25” and the ΔVERP result is on record as “+14”. Moreover, where the note is “45 min after administration”, the ΔAERP entry is reported as “+34”, the “ΔJ-Tpeakc (early repolarization period)” value was −5, the “ΔTRP (terminal repolarization period)” value is reported as −1.5 and the “ΔTpeak-Tend (late repolarization period)” value is reported as “+1”. For the setting “45 min after administration”, the ΔVERP result is on record as “+13”.
